1 compound from article PMC3115046, “Analyzing Airway Inflammation with Chemical Biology: Dissection of Acidic Mammalian Chitinase Function with a Selective Drug-like Inhibitor” (Chemistry & Biology, 2011) can be followed below.

Read-outs that look alike come from different tables or passages of the source.

One assay addresses T1, human AMCase (hAMCase) (Homo sapiens, UniProt Q9BZP6).
T1 construct: A fragment corresponding to hAMCase 22-398 (bp 64–1194) was ligated into the pPIC9 vector; made in house; host or cells: Pichia pastoris GS115
The experiment in a line: Chitinase activity assay with fluorescent 4-MU substrate, hAMCase. The format is biochemical. As to the method: A fragment corresponding to hAMCase 22-398 (bp 64–1194) was ligated into the pPIC9 vector (Invitrogen) using the Xho I and Not I restriction sites. The enzyme was subsequently overexpressed as a secreted protein from the Pichia pastoris GS115 strain and purified using a combination of affinity chromatography and size-exclusion chromatography. Pure hAMCase was spin concentrated to 37 mg/ml in 25 mM HEPES (pH 6.8), 250 mM NaCl. The protein was crystallized at 30°C from 75% saturated NaCl, 0.1 M HEPES (pH 7.4) using the hanging drop method. Crystals grew to an approximate size of 200 × 100 × 50 μm. Crystals were cryoprotected in 50% saturated NaCl, 20% glycerol in 0.1 M HEPES (pH 7.4) and subsequently flash frozen in liquid nitrogen. […] Data for hAMCase were collected at ID14-EH1 at the European Synchrotron Radiation Facilities (ESRF) using a cryostream of cold nitrogen (110 K). […]
Chitinase activity of hAMCase, lung homogenates, or AMCase COS-7 cell supernatants (serum-free) were determined using 4-methylumbelliferyl-β-D-N,N′,N″-triacetylchitotrioside and 4-methylumbelliferyl-β-D-N,N′,N″-triacetylchitobioside, as described. […] Liberated 4-methlyumberlliferone was quantified using a microplate fluorometer (excitation 360 nm/emission 440 nm). Ki and IC50 values were determined in the presence of different concentrations of inhibitor. […]

Assay [1] addresses human chitotriosidase (hCHIT1) (Homo sapiens, UniProt Q13231). In words: Chitinase activity assay with fluorescent 4-MU substrate, hCHIT1. The format is biochemical. The settings on record: read-out: IC50 against hCHIT1.
Assay [2] deals with inflammatory cell recruitment in bronchoalveolar lavage. The experiment in a line: Bronchoalveolar lavage cell counts, OVA allergic inflammation model. The format is in vivo, BALB/c mice. How it is done: All experiments used female BALB/c mice, 6- to 8-weeks-old. Mice were kept in individually ventilated cages and all experiments were conducted under UK Home Office guidelines. Mice were sensitized (day 0) and boosted (day 14) i.p. with 20 μg OVA (Grade V, Sigma) adsorbed to 9% potassium alum. Mice were either challenged on day 28 and 30 with 50 μg OVA or PBS by the intratracheal route or were challenged with 1% OVA or PBS by aerosol for 30 min on day 28 to day 30. […] Necropsies were performed 24 hr after the final airway challenge. […] Total cell numbers were counted and cytospins prepared for differential cell counts, which were assessed by morphology following Diff Quick staining ([…]). BALF was centrifuged at 1200 × g and supernatant stored at -20°C for further analysis.

In assay [3] the test system is OVA-specific tLN cell cultures. In words: Cytokine and chemokine secretion from draining tLN cell cultures (Luminex). The format is in vivo, BALB/c mice. How it is done:
All experiments used female BALB/c mice, 6- to 8-weeks-old. Mice were kept in individually ventilated cages and all experiments were conducted under UK Home Office guidelines. Mice were sensitized (day 0) and boosted (day 14) i.p. with 20 μg OVA (Grade V, Sigma) adsorbed to 9% potassium alum. Mice were either challenged on day 28 and 30 with 50 μg OVA or PBS by the intratracheal route or were challenged with 1% OVA or PBS by aerosol for 30 min on day 28 to day 30. […] Necropsies were performed 24 hr after the final airway challenge.
The draining thoracic lymph nodes (tLN) were dissected and single-cell suspensions made before being plated out at 1 × 10^6 cells/mL in 96-well plates (RPMI 1640 supplemented with L-glutamine, penicillin streptomycin, and FCS). Cells were stimulated with 500 μg/mL OVA and incubated for 72 hr at 37°C, 5% CO2. MIP-1α levels were measured in cell-free supernatants using a Luminex kit (Invitrogen) and samples were read with a Luminex 100 multiplex bead array system.

Where [4] appears, read: 5 mg/kg i.p., OVA-challenged mice.

Chain of human chitotriosidase (hCHIT1) (Q13231 22-466): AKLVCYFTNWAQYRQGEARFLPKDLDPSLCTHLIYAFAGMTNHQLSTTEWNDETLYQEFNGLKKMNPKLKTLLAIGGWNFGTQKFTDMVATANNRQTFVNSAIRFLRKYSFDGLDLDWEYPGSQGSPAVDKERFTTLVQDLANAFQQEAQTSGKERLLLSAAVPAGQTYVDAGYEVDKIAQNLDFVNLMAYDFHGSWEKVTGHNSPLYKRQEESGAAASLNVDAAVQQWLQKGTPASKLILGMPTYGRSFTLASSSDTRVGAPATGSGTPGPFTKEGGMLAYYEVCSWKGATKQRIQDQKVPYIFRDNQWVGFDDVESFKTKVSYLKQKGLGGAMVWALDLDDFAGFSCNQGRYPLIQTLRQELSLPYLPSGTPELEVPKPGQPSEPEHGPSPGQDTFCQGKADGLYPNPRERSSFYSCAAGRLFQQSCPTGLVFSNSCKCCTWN
T1 sequence (Q9BZP6 22-398): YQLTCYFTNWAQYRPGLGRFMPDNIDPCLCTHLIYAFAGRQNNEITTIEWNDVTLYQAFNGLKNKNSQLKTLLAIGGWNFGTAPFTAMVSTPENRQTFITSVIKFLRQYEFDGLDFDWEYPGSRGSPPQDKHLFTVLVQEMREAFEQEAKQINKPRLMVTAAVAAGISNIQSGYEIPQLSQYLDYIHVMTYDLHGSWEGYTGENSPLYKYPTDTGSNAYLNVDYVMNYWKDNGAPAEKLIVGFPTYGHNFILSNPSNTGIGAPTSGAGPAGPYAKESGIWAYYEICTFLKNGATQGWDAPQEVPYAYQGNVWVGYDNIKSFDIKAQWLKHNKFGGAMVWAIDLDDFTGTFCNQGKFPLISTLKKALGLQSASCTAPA

Usually IC50 stands for the concentration at which inhibition is half-maximal. For the compound `Cn1cnc2c1c(=O)n(CCCn1c(=O)c3[nH]cnc3n(C)c1=O)c(=O)n2C` [bisdionin F], the IC50 at human AMCase (hAMCase) (4-MU substrate, pH 5.2, 10 min 37°C, read-out: IC50 against hAMCase) was 0.92 ± 0.04 µM. On human AMCase (hAMCase) (hAMCase vs hCHIT1), the “selectivity for AMCase over CHIT1” value is reported as 20 fold. The IC50 in assay [1] (listed as Bisdionin F) was 17.1 ± 1 µM. In addition, in assay [1], the half-maximal inhibitory concentration (IC50) is 17 µM. Besides, the “increase in neutrophil cell number in BALF vs vehicle-treated OVA-challenged mice” value in assay [2] (5 mg/kg i.p.) came out at 4 fold. Moreover, in assay [2] (setting [4]), the “number of eosinophils in BALF” value is given as “reduction” and the “number of lymphocytes in BALF” value is on record as “reduction”. Also, the “total cell airway infiltrates (BALF)” value in assay [2] (5 mg/kg i.p., OVA-challenged mice, vs vehicle, p < 0.01) is recorded as “significantly reduced”. Besides, the “total cell numbers (BALF) in PBS-challenged animals” value in assay [2] (5 mg/kg i.p., PBS-challenged mice) is “not altered”. Besides, the “eosinophilia of OVA-challenged mice” value in assay [2] (1 and 5 mg/kg i.p.) is “reduced”. The “increase in neutrophil cell number in BALF” value in assay [2] (1 and 5 mg/kg i.p., OVA-challenged mice) is reported as 2- to 4 fold. Besides, the “reduction of eosinophil recruitment” value in assay [2] (doses that decreased penH in allergic animals) is “approximately 50%”. Besides, in assay [3] (5 mg/kg i.p., OVA-challenged animals, 72 hr culture), the “MIP-1α secretion from tLN cell cultures” value was “enhanced”. In addition, in assay [3] (allergic mice, data not shown), the “IL-17 secretion in tLN cultures” value is recorded as “not significantly altered” and the “KC secretion in tLN cultures” value is “not significantly altered”.
